Data taken from patent US8735632B2, “Compounds” (DSM IP Assets B.V., priority 2009, dated 2014).

What was measured:
Type in all cases: physicochemical
[1] = Reduction of solvent necessary to dissolve solid UV-filter; conditions: for reduction of the cosmetic solvent necessary to dissolve BMDBM: with PG-UVB 1:1
[2] = Solubility of BMDBM/BEMT in 1:1 (w/w) mixture C12-15 alkyl benzoate/PG-UVB, stored 1 month at RT, no re-crystallization
[3] = Solubility in C12-15 alkyl benzoate: saturation of the solvent, content in the supernatant by HPLC; conditions: pure cosmetic solvent
[4] = C12-15 alkyl benzoate/PG-UVB 1:1 versus C12-15 alkyl benzoate

Compound | reduction of the cosmetic solvent necessary to dissolve BMDBM ([1]; C12-15 alkyl benzoate) | reduction of the cosmetic solvent necessary to dissolve BMDBM ([1]; diisopropyl sebacate) | amount of 1:1 (w/w) mixture of PG-UVB and C12-15 alkyl benzoate necessary to dissolve 0.5 g BMDBM ([1]; with PG-UVB of example 1) | amount of 1:1 (w/w) mixture of PG-UVB and diisopropyl sebacate needed to dissolve 0.5 g BMDBM ([1]; with PG-UVB of example 1) | Δ solubility related to cosmetic solvent ([2]; C12-15 alkyl benzoate/PG-UVB 1:1) | Increase of solubility BMDBM/BEMT [2, 4] | Δ solubility [2, 4] | Solubility in C12-15 alkyl benzoate [3]
butyl methoxydibenzoylmethane [BMDBM] | 75% | 65% | 1.5 g | 1.4 g | – | – | – | –
CCCCC(CC)COc1ccc(-c2nc(-c3ccc(OC)cc3)nc(-c3ccc(OCC(CC)CCCC)cc3O)n2)c(O)c1 (centres unmarked) [BEMT, bis-ethylhexyloxyphenol methoxyphenyl triazine] | – | – | – | – | +13.5 wt.-% | +54% | +7 wt.-% | 13 wt.-%
